From PubChem BioAssay (NCI)
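Cultured in 96-well plates, cells were exposed to test compound for 48 hours across five concentrations. TGI is the concentration that stops growth completely.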

Tests used:
Test in all cases: NCI-60 cell line screen, 48 h
HCT-15 colon = test system: HCT-15 colon
NCI-H23 lung = test system: NCI-H23 lung
EKVX NSCLC = test system: EKVX NSCLC
OVCAR-5 ovarian = test system: OVCAR-5 ovarian
T-47D breast = test system: T-47D breast
OVCAR-8 ovarian = test system: OVCAR-8 ovarian
SK-MEL-28 melanoma = test system: SK-MEL-28 melanoma
MDA-N = test system: MDA-N
COLO 205 colon = test system: COLO 205 colon
IGROV1 ovarian = test system: IGROV1 ovarian

O=C(C[C@@H]1NCCC[C@H]1O)Cn1cnc2cc(Br)c(Cl)cc2c1=O
TGI (HCT-15 colon): 0.403 µM
TGI (NCI-H23 lung): 0.11 µM
TGI (EKVX NSCLC): 0.803 µM
TGI (OVCAR-5 ovarian): 0.0883 µM
TGI (T-47D breast): 0.082 µM
TGI (OVCAR-8 ovarian): 0.125 µM
TGI (SK-MEL-28 melanoma): 0.119 µM
TGI (MDA-N): 0.0881 µM
TGI (COLO 205 colon): 0.0391 µM
TGI (IGROV1 ovarian): 0.158 µM

O=C(Nc1cccc2nsnc12)c1cc2c(cc1Cl)Sc1nccn1S2(=O)=O
TGI (HCT-15 colon): 25.6 µM
TGI (NCI-H23 lung): 25.3 µM
TGI (EKVX NSCLC): 11.1 µM
TGI (OVCAR-5 ovarian): > 91.6 µM
TGI (T-47D breast): 7.04 µM
TGI (OVCAR-8 ovarian): 8.94 µM
TGI (SK-MEL-28 melanoma): 8.86 µM
TGI (MDA-N): 34.3 µM
TGI (COLO 205 colon): 33.3 µM
TGI (IGROV1 ovarian): 46.6 µM

C=C[C@]1(C)CC[C@]2(C)C(CC[C@@]3(C)C2C[C@H](O)[C@H](O)[C@@]3(C)O)C1 (stereo not given in full)
TGI (HCT-15 colon): > 100 µM
TGI (NCI-H23 lung): > 100 µM
TGI (EKVX NSCLC): > 100 µM
TGI (OVCAR-5 ovarian): > 100 µM
TGI (T-47D breast): > 100 µM
TGI (OVCAR-8 ovarian): > 100 µM
TGI (SK-MEL-28 melanoma): > 100 µM
TGI (MDA-N): > 100 µM
TGI (COLO 205 colon): > 100 µM
TGI (IGROV1 ovarian): > 100 µM

CC1CN=C(c2cccc(OCc3ccc(COc4cccc(C5=NCC(C)N5)c4)cc3)c2)N1 (stereo not given)
TGI (HCT-15 colon): > 100 µM
TGI (NCI-H23 lung): > 100 µM
TGI (EKVX NSCLC): > 100 µM
TGI (OVCAR-5 ovarian): > 100 µM
TGI (T-47D breast): > 100 µM
TGI (OVCAR-8 ovarian): > 100 µM
TGI (SK-MEL-28 melanoma): > 100 µM
TGI (MDA-N): > 100 µM
TGI (COLO 205 colon): 39 µM
TGI (IGROV1 ovarian): > 100 µM

CCOC(=O)c1cc(-c2ccc(OC)c(OC)c2)c[nH]1
TGI (HCT-15 colon): > 10 µM
TGI (NCI-H23 lung): > 10 µM
TGI (EKVX NSCLC): > 10 µM
TGI (OVCAR-5 ovarian): > 10 µM
TGI (T-47D breast): > 10 µM
TGI (OVCAR-8 ovarian): > 10 µM
TGI (SK-MEL-28 melanoma): > 10 µM
TGI (MDA-N): > 10 µM
TGI (COLO 205 colon): > 10 µM
TGI (IGROV1 ovarian): > 10 µM

N#Cc1c(N)c(-c2ccc(Cl)cc2)c(F)c2ccccc12
TGI (HCT-15 colon): > 100 µM
TGI (NCI-H23 lung): > 100 µM
TGI (EKVX NSCLC): > 100 µM
TGI (OVCAR-5 ovarian): > 100 µM
TGI (T-47D breast): > 100 µM
TGI (OVCAR-8 ovarian): > 100 µM
TGI (SK-MEL-28 melanoma): > 100 µM
TGI (MDA-N): > 100 µM
TGI (COLO 205 colon): > 100 µM
TGI (IGROV1 ovarian): > 100 µM

CN(C)c1ccc(/C=C(\NC(=O)c2ccccc2)C(=O)Nc2ccccc2C(=O)NN2C(=O)CSC2c2ccc(N(C)C)cc2)cc1 (stereo not given)
TGI (HCT-15 colon): > 100 µM
TGI (NCI-H23 lung): > 100 µM
TGI (EKVX NSCLC): > 100 µM
TGI (OVCAR-5 ovarian): > 100 µM
TGI (T-47D breast): > 100 µM
TGI (OVCAR-8 ovarian): > 100 µM
TGI (SK-MEL-28 melanoma): > 100 µM
TGI (MDA-N): > 100 µM
TGI (COLO 205 colon): > 100 µM
TGI (IGROV1 ovarian): > 100 µM

N#Cc1c(=O)c2cccnc2n2c1[nH]c1ccccc12
TGI (HCT-15 colon): > 100 µM
TGI (NCI-H23 lung): > 100 µM
TGI (EKVX NSCLC): > 100 µM
TGI (OVCAR-5 ovarian): > 100 µM
TGI (T-47D breast): > 100 µM
TGI (OVCAR-8 ovarian): > 100 µM
TGI (SK-MEL-28 melanoma): > 100 µM
TGI (MDA-N): > 100 µM
TGI (COLO 205 colon): > 100 µM
TGI (IGROV1 ovarian): > 100 µM

Cc1[nH]c(=O)nc(N/N=C/c2ccc(Cl)c(Cl)c2)c1C(=O)Nc1ccc(Cl)c(Cl)c1
TGI (HCT-15 colon): > 42.9 µM
TGI (NCI-H23 lung): > 44.9 µM
TGI (EKVX NSCLC): > 100 µM
TGI (OVCAR-5 ovarian): > 46.3 µM
TGI (T-47D breast): 72 µM
TGI (OVCAR-8 ovarian): 14.8 µM
TGI (SK-MEL-28 melanoma): 23.4 µM
TGI (MDA-N): 39.7 µM
TGI (COLO 205 colon): > 44.1 µM
TGI (IGROV1 ovarian): > 39.2 µM

CCOC(=O)c1c2c(n(C)c1-c1ccccc1)C(=O)C(C)=CC2=O
TGI (HCT-15 colon): 17.7 µM
TGI (NCI-H23 lung): 29.7 µM
TGI (EKVX NSCLC): 20.5 µM
TGI (OVCAR-5 ovarian): 19.6 µM
TGI (T-47D breast): > 26 µM
TGI (OVCAR-8 ovarian): 15.4 µM
TGI (SK-MEL-28 melanoma): 27.8 µM
TGI (MDA-N): 4.08 µM
TGI (COLO 205 colon): 4.5 µM
TGI (IGROV1 ovarian): 17.6 µM

O=C1c2cc3c(cc2CC12Cc1cc4c(cc1C2)CCC4)CCC3
TGI (HCT-15 colon): > 100 µM
TGI (NCI-H23 lung): > 100 µM
TGI (EKVX NSCLC): > 100 µM
TGI (OVCAR-5 ovarian): > 100 µM
TGI (T-47D breast): > 100 µM
TGI (OVCAR-8 ovarian): > 100 µM
TGI (SK-MEL-28 melanoma): > 100 µM
TGI (MDA-N): > 100 µM
TGI (COLO 205 colon): > 100 µM
TGI (IGROV1 ovarian): > 100 µM

CCOC(=O)CCC(NC(=O)OCc1ccccc1)C(=O)NNC(=O)OC(C)(C)C (stereo not given)
TGI (HCT-15 colon): > 100 µM
TGI (NCI-H23 lung): > 100 µM
TGI (EKVX NSCLC): > 100 µM
TGI (OVCAR-5 ovarian): > 100 µM
TGI (T-47D breast): > 100 µM
TGI (OVCAR-8 ovarian): > 100 µM
TGI (SK-MEL-28 melanoma): > 100 µM
TGI (MDA-N): > 100 µM
TGI (COLO 205 colon): > 100 µM
TGI (IGROV1 ovarian): > 100 µM

COc1ccc(N2C(=O)C3c4[nH]c5ccc(C)cc5c4C4CCC(C(C)C)CC4C3C2=O)cc1 (stereo not given)
TGI (HCT-15 colon): > 100 µM
TGI (NCI-H23 lung): > 100 µM
TGI (EKVX NSCLC): > 100 µM
TGI (OVCAR-5 ovarian): > 100 µM
TGI (T-47D breast): > 100 µM
TGI (OVCAR-8 ovarian): > 100 µM
TGI (SK-MEL-28 melanoma): > 100 µM
TGI (MDA-N): > 100 µM
TGI (COLO 205 colon): > 100 µM
TGI (IGROV1 ovarian): > 100 µM
